# In ChEMBL document CHEMBL1151147, “Furanoid lignans from Larrea tridentata” (J Nat Prod, 1990):
# Active and inactive are the calls of the source. The calls are words filed in the database; no cut-off is given here.
# Tests used:
# Type in all cases: functional, organism-based
# [1] = tested on: Rattus norvegicus; assay: Estrogenic activity in Sprague-Dawley rat at 30 mg/kg; design: dose 30 mg/kg
# [2] = tested on: Rattus norvegicus; assay: Antiimplantation activity in Sprague-Dawley rat administered postcoitally
# [3] = tested on: Rattus norvegicus; assay: Antiimplantation activity in Sprague-Dawley rat assessed as decrease in implantation sites at 60 mg/kg administered postcoitally; design: dose 60 mg/kg
# [4] = tested on: Rattus norvegicus; assay: Antiimplantation activity in Sprague-Dawley rat at 5 mg/kg, po administered postcoitally; design: dose 5 mg/kg
# [5] = tested on: Rattus norvegicus; assay: Antiimplantation activity in Sprague-Dawley rat assessed as absence of viable fetuses at 15 mg/kg administered postcoitally; design: dose 15 mg/kg
# [6] = tested on: Rattus norvegicus; assay: Antiimplantation activity in Sprague-Dawley rat assessed as decrease in fertility rate at 30 mg/kg administered postcoitally; design: dose 30 mg/kg
# [7] = tested on: Rattus norvegicus; assay: Antiimplantation activity in Sprague-Dawley rat assessed as decrease in implantation sites at 30 mg/kg administered postcoitally; design: dose 30 mg/kg
compound,measurement,setting,value
C[C@H]1[C@H](c2ccc(O)cc2)c2cc(O)c(O)cc2C[C@H]1C,Activity,[1],Active
same,Activity,[2],Dose-dependent effect
same,Activity,[3],Active
same,Activity,[4],inactive
same,Activity,[5],Active
same,Activity,[6],Active
same,Activity,[7],Active
